≈ marks a conversion by molar mass, not a printed value. Read-outs that look alike come from different tables or passages of the source. Bridge positions count the residues as written; N and C are the ends. Square brackets hold non-standard residues; d marks the D form. Peptide text beside a SMILES is read from it. dNMeF = CN[C@H](Cc1ccccc1)C(=O)O
Columns and labels:
[1] = test system: Bacillus Subtilis ATCC 6633; type: cell-based
Procedure: (§1) Bacteria were grown on Mueller Hinton broth (oxoid). All incubations were at 37° C. Dilutions were carried out using Mueller Hinton. […] This process was repeated up to well 11. […] This was repeated three times. […] Results are tabulated in the Examples.

[2] = test system: Staphylococcus saprophyticus ATCC BAA 750; type: cell-based
Procedure: as §1

[3] = test system: Staphylococcus saprophyticus ATCC 15305; type: cell-based
Procedure: as §1

SA4299 = type: cell-based; details: Table 11
Procedure: as §1

[4] = test system: Staphylococcus saprophyticus ATCC 49907; type: cell-based
Procedure: as §1

SE12228 = type: cell-based
Procedure: as §1

[5] = test system: Bacillus Cereus ATCC 11788; type: cell-based
Procedure: as §1

[6] = test system: Staphylococcus saprophyticus ATCC 49453; type: cell-based
Procedure: as §1

MRSA 1003 = type: cell-based, Staphylococcus aureus
Procedure: as §1

Enterococcus = test system: Enterococcus
Procedure, shortened: (§2)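 Each peptide, taken up in DMSO, is diluted stepwise by halves in Mueller Hinton broth (highest level 512 μg/ml). Plates incubate 24 hours at 37° C. The MIC is read as the lowest concentration lacking visible growth, with triplicate repeats.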

MRSA ATCC 33591 [7] = details: MRSA ATCC 33591
Procedure, shortened: as §2

VRE 1002 = type: cell-based, Enterococcus faecalis
Procedure: as §1

VRE 1004 = type: cell-based, Enterococcus faecalis
Procedure: as §1

VRE 1001 = type: cell-based, Enterococcus faecalis
Procedure: as §1

VRE 1008 = type: cell-based, Enterococcus faecalis
Procedure: as §1

VRE ATCC 29212 = experiment: microbe, parasite or virus in culture; details: ATCC 29212
Procedure, shortened: as §2

[8] = test system: Staphylococcus aureus ATCC 29213; experiment: microbe, parasite or virus in culture
Procedure, shortened: as §2

MRSA ATCC 700699 = experiment: microbe, parasite or virus in culture; details: ATCC 700699
Procedure, shortened: as §2

MRSA DR 42412 (sputum) = experiment: microbe, parasite or virus in culture; details: DR 42412 (sputum)
Procedure, shortened: as §2

VRE ATCC 700802 = experiment: microbe, parasite or virus in culture; details: ATCC 700802
Procedure, shortened: as §2

MRSA DM21455 (eye) = experiment: microbe, parasite or virus in culture; details: DM21455 (eye)
Procedure, shortened: as §2

S. aureus ATCC 29213 [9] = experiment: Time-kill kinetics against S. aureus ATCC 29213; type: cell-based, Staphylococcus aureus; details: 0.5 μg/ml or 1 μg/ml; at 8 h
S. aureus ATCC 29213 [10] = test system: S. aureus ATCC 29213
S. aureus/MRSA strains = experiment: Minimum bactericidal concentrations against S. aureus/MRSA strains; type: cell-based, Staphylococcus aureus; details: tested S. aureus/MRSA strains
Description: (§3) The inclusion of 3 arginines in the above case likely perturbs the amphiphilic character of the teixobactin, resulting in a decrease in activity. […] Importantly, the hydrophobic-hydrophilic balance of these analogues was similar to natural teixobactin (two cationic charges). […] The minimum bactericidal concentrations (MBC) of teixobactin analogues against S. aureus/MRSA strains (Table 11) has been further determined. […] In view of narrow MIC distribution values and bactericidal properties, attention was focused on Compound 26 and further investigated its biological properties.

[11] = rabbit; 50 μl of 0.3% (w/v) topically 4 times/day; fluorescein staining
Procedure: The in vivo toxicity of Compound 26 in a rabbit corneal damage model was examined. A 50 μl of 0.3% (w/v) solution was applied topically (4 times/day) to the circularly debrided cornea and reepithelialisation was monitored by fluorescein staining. Vehicle alone served as control.

Pseudomonas aeruginosa = experiment: Activity against Pseudomonas aeruginosa; type: cell-based
Description: as §3

[12] = test system: panel of antibiotic-resistant and antibiotic susceptible Gram-positive pathogens; details: average over tested strains
Procedure, shortened: as §2

MRSA ATCC 33591 [13] = test system: MRSA ATCC 33591
[14] = test system: human lung epithelial cell line A549; experiment: in vitro
Procedure: (§4) It was important to evaluate the cytotoxicity of Compound 26 on mammalian cells prior to in vivo studies. The cytotoxicity of Compound 26 in human lung epithelial cell line A549 and primary dermal fibroblasts (hDFs) was determined. Both of these cell culture models are already established for evaluation of cytotoxicity of antimicrobial peptides.
(§5) The stock solution of Compound 26 (500 μg/ml) was prepared fresh by directly dissolving Compound 26 in cell culture medium and used. Cells were treated with dimethyl sulfoxide (DMSO, 0.1% v/v) or nocodazole (5 μg/ml dissolved in DMSO) as controls. At the end of the treatment period, metabolic activities of cells were quantified by MTS-based cell viability assay. […] After 24 h treatment with Compound 26, A549 cells (c) and hDFs (d) were fixed, fluorescently stained with rhodamine-phalloidin (red), alexa fluor 488 conjugated anti-α-tubulin (green) and Hoechst 33342 (blue) and imaged using IN Cell Analyzer 2200 automated microscope. Representative images of cells treated with Compound 26 (62.5 μg/ml for 24 h) or nocodazole (10 μg/ml, toxicity control) are shown in FIG. 2 c,d.

in vitro = details: human
Procedure: as §4, §5

[15] = test system: human primary dermal fibroblasts (hDFs); experiment: in vitro
Procedure: as §4, §5

S. aureus ATCC 29213 [16] = experiment: Mice-eye model of S. aureus keratitis; type: in vivo; details: for mean corneal thickness: baseline 93.8±2.9 μm
Description: The in vivo efficacy of Compound 26 in the mice-eye model of S. aureus keratitis was examined. S. aureus is one of the major etiological agents for bacterial keratitis and the toxic secretions produced by this microorganism have been implicated in corneal melt, leading to significant morbidity and vision loss. […] A total of 8 doses were applied and the progression of the infection was monitored by slit lamp examination, anterior segment optical coherent tomography (AS-OCT) and microbiological enumeration of the bacterial bioburden. Mice cornea treated with PBS had severe clinical presentation indicated by chemosis, significant presence of hypopyon like materials and corneal infiltrates (FIG. 4).

Q: What does the source list for `CC[C@@H](C)[C@@H](NC(=O)[C@@H](CCCNC(=N)N)NC(=O)[C@H](CCCNC(=N)N)NC(=O)[C@@H](NC(=O)[C@@H](Cc1ccccc1)NC)[C@@H](C)CC)C(=O)N[C@H](C(=O)N[C@@H](CO)C(=O)N[C@H]1C(=O)N[C@@H](CCCNC(=N)N)C(=O)N[C@@H](CC(C)C)C(=O)N[C@@H]([C@@H](C)CC)C(=O)O[C@H]1C)[C@@H](C)CC` [Compound 31, Arg3-D-Arg4-Arg9-Leu10-teixobactin] (H-[dNMeF]IR[dR][dI]IS[dT]RLI; ester 8-C)?
A: MIC [1]: <0.0625 µg/mL; MIC ([2]; ATCC BAA 750): <0.0625 µg/mL; MIC ([3]; ATCC 15305): 0.25 µg/mL (≈ 0.181 µM); MIC (SA4299): 1 µg/mL (≈ 0.723 µM); MIC ([4]; ATCC 49907): <0.0625 µg/mL; MIC (SE12228): <0.0625 µg/mL; MIC [5]: 1 µg/mL (≈ 0.723 µM); MIC ([6]; ATCC 49453): <0.0625 µg/mL; MIC (MRSA 1003): 2 µg/mL (≈ 1.45 µM); MIC in Enterococcus (Enterococcus): 2 to 8 µg/mL; MIC against MRSA ATCC 33591 (MRSA ATCC 33591 [7]): 1 µg/mL (≈ 0.723 µM); MIC (VRE 1002): 8 µg/mL (≈ 5.78 µM); MIC (VRE 1004): 4 µg/mL (≈ 2.89 µM); MIC (VRE 1001): 2 µg/mL (≈ 1.45 µM); MIC (VRE 1008): 8 µg/mL (≈ 5.78 µM); MIC (VRE ATCC 29212): 4 µg/mL (≈ 2.89 µM); MIC against Staphylococcus aureus ATCC 29213 [8]: 1 µg/mL (≈ 0.723 µM); MIC (MRSA ATCC 700699): 2 µg/mL (≈ 1.45 µM); MIC (MRSA DR 42412 (sputum)): 2 µg/mL (≈ 1.45 µM); MIC (VRE ATCC 700802): 4 µg/mL (≈ 2.89 µM); MIC (MRSA DM21455 (eye)): 2 µg/mL (≈ 1.45 µM)

Q: For `CC[C@@H](C)[C@@H](NC(=O)[C@@H](CCCNC(=N)N)NC(=O)[C@H](CO)NC(=O)[C@@H](NC(=O)[C@@H](Cc1ccccc1)NC)[C@@H](C)CC)C(=O)N[C@H](C(=O)N[C@@H](CO)C(=O)N[C@H]1C(=O)N[C@@H](C)C(=O)N[C@@H](CC(C)C)C(=O)N[C@@H]([C@@H](C)CC)C(=O)O[C@H]1C)[C@@H](C)CC` [Compound 26, D-Arg4-Leu10-teixobactin], which MIC [1] is on record?
A: 0.125 µg/mL (≈ 0.102 µM)

Q: And the MIC ([2]; Staphylococcus saprophyticus ATCC BAA 750, Table 11)?
A: <0.0625 µg/mL

Q: And the MIC ([3]; Staphylococcus saprophyticus ATCC 15305, Table 11)?
A: <0.0625 µg/mL

Q: What about the MIC ([4]; Staphylococcus saprophyticus ATCC 49907, Table 11) of the same molecule?
A: <0.0625 µg/mL

Q: What about the MIC [5] of the same molecule?
A: 0.5 µg/mL (≈ 0.407 µM)

Q: What about the MIC ([6]; Staphylococcus saprophyticus ATCC 49453, Table 11) of the same molecule?
A: <0.0625 µg/mL

Q: And the “decrease in bacterial viability (time-kill)” value (S. aureus ATCC 29213 [9])?
A: ≥log10 decrease in bacterial viability

Q: And the “calculated frequency of resistance” value (S. aureus ATCC 29213 [10])?
A: < 10^−10

Q: What about the “resistant mutants, single step resistance” value (S. aureus ATCC 29213 [10]; 5×, 10×, 20×MIC) of the same molecule?
A: could not be obtained

Q: And the MIC (MRSA 1003)?
A: 0.5 µg/mL (≈ 0.407 µM)

Q: What about the “MBC relative to MIC” value (S. aureus/MRSA strains) of the same molecule?
A: ≤ 4 times the MIC

Q: What about the “corneal wound closure / reepithelialisation versus PBS” value [11] of the same molecule?
A: no significant difference in wound closure

Q: And the “activity against Pseudomonas aeruginosa (Gram negative bacteria)” value (Pseudomonas aeruginosa)?
A: inactive

Q: What about the “MIC (MRSA)” value (MRSA ATCC 33591 [7]; Table 10) of the same molecule?
A: 0.125 µg/mL (≈ 0.102 µM)

Q: What about the “average MIC” value [12] of the same molecule?
A: 0.27 µg/mL

Q: What about the MIC (VRE 1002) of the same molecule?
A: 1 µg/mL (≈ 0.813 µM)

Q: And the MIC (VRE 1004)?
A: 0.25 µg/mL (≈ 0.203 µM)

Q: And the MIC (VRE 1001)?
A: 0.5 µg/mL (≈ 0.407 µM)

Q: And the MIC (VRE 1008)?
A: 0.5 µg/mL (≈ 0.407 µM)

Q: What about the “calculated frequency of resistance” value (MRSA ATCC 33591 [13]) of the same molecule?
A: < 10^−10

Q: And the “resistant mutants, single step resistance” value (MRSA ATCC 33591 [13]; 5×, 10×, 20×MIC)?
A: could not be obtained

Q: What about the “cell morphology, high content images” value [14] of the same molecule?
A: absence of any cytoskeletal and nuclear disruption

Q: And the viability at 24 h, 250 µg/mL (in vitro; A549 lung epithelial cells)?
A: 80%

Q: What about the viability at 24 h, 250 µg/mL (in vitro; primary dermal fibroblasts (hDFs)) of the same molecule?
A: 80%

Q: And the “cell morphology, high content images” value [15]?
A: absence of any cytoskeletal and nuclear disruption

Q: What about the mean corneal thickness (S. aureus ATCC 29213 [16]; 24 h post treatment, 0.3% topical) of the same molecule?
A: 92.3±12.5 μm

Q: What about the mean corneal thickness (S. aureus ATCC 29213 [16]; 48 h post treatment, 0.3% topical) of the same molecule?
A: 121.7±3.2 μm

Q: And the “cornea with detectable bacterial colonies” value (S. aureus ATCC 29213 [16]; after 8 dosages)?
A: Five out of six

Q: And the “mean log10 CFU/tissue” value (S. aureus ATCC 29213 [16]; corneal tissues harvested after 8 dosages, ± standard error of the mean)?
A: 3.97±0.19 log10 CFU/tissue

Q: What about the “clinical appearance of infected cornea (slit lamp)” value (S. aureus ATCC 29213 [16]; mice, 0.3% topical, 8 doses from 6 h p.i.) of the same molecule?
A: remained clear and no signs of corneal defects

Q: And the MIC (VRE ATCC 29212)?
A: 0.5 µg/mL (≈ 0.407 µM)

Q: And the MIC ([8]; SA29213, Table 11)?
A: <0.0625 µg/mL

Q: And the MIC (MRSA ATCC 700699)?
A: 0.25 µg/mL (≈ 0.203 µM)

Q: What about the MIC (MRSA DR 42412 (sputum)) of the same molecule?
A: 0.0313 µg/mL (≈ 0.0255 µM)

Q: And the MIC (VRE ATCC 700802)?
A: 0.5 µg/mL (≈ 0.407 µM)

Q: What about the MIC (MRSA DM21455 (eye)) of the same molecule?
A: 0.0313 µg/mL (≈ 0.0255 µM)

Reference: patent US20240327463A1, “ANTIBACTERIAL PRODUCTS” (priority 2017, published 2024)
